This assay addresses T1, human M4 muscarinic acetylcholine receptor (Homo sapiens, UniProt P08173).
T1 construct: expressed in transfected cells; host or cells: CHO-K1
T1 sequence (P08173 1-479): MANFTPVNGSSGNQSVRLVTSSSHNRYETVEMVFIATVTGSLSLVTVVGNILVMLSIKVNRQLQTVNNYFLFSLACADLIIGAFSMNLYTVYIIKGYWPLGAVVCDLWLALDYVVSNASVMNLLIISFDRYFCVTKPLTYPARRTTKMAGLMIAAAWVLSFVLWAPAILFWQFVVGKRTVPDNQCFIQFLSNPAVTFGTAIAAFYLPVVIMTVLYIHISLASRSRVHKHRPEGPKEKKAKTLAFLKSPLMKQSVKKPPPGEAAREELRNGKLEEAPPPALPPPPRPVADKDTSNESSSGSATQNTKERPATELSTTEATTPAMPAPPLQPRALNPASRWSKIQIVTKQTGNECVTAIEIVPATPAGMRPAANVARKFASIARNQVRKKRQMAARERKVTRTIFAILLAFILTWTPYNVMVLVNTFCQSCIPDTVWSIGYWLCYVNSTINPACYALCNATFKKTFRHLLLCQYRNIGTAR
The assay can be described thus: human FLIPR-based M4 PAM assay (CHO-K1 cells with human M4 receptor and Gaqi5, calcium dye fluorescence). The class given is cell-based. The following applies: inflection point (IP) of dose response curve, acetylcholine added at 20% of maximum response, read-out: M4 FLIPPR Hu IP. In outline: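 CHO-K1 cells stably expressing human M4 with chimeric Gaqi5, calcium-dye loaded ~1 h at 37° C; compound added at increasing concentrations 4 min before acetylcholine at an EC20 concentration (sometimes a further EC70 addition).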
Take `Cc1ccc(-c2cnn(CC3CCCC3)c2)c(-c2ccc3cc(N)nnc3c2)n1` [Example 158, 7-(3-(1-(cyclopentylmethyl)-1H-pyrazol-4-yl)-6-methylpyridin-2-yl)cinnolin-3-amine]: the EC50 worked out at 19 nM.
The result for `Cc1ccc(-c2cnn(CC3CCCC3)c2)c(-c2ccc3cc(I)nnc3c2)n1` [Example 159, 7-(3-(1-(cyclopentylmethyl)-1H-pyrazol-4-yl)-6-methylpyridin-2-yl)-3-iodocinnoline] reads 14 nM.
As for `N#Cc1ccc(-c2nc(C#N)ccc2-c2cnn(CC3CCCC3)c2)cc1` [Example 160, 6-(4-cyanophenyl)-5-(1-(cyclopentylmethyl)-1H-pyrazol-4-yl)picolinonitrile], the figure is 48 nM; as for `CC1(Cn2cc(-c3ccc(C#N)nc3-c3ccc4cc(N5CCC5)cnc4c3)cn2)CCCC1` [Example 161, 6-(3-(azetidin-1-yl)Quinolin-7-yl)-5-(1-((1-methylcyclopentyl)methyl)-1H-pyrazol-4-yl)picolinonitrile], 45 nM; as for `Cc1cn2ccc(-c3nc(C#N)c(Cl)cc3-c3cnn(CC4(C)CCCC4)c3)cc2n1` [Example 162, 3-chloro-5-(1-((1-methylcyclopentyl)methyl)-1H-pyrazol-4-yl)-6-(2-methylimidazo[1,2-a]pyridin-7-yl)picolinonitrile], 40 nM.
As for `CC1(Cn2cc(-c3ccc(C#N)nc3-c3ccc4cc(CO)nnc4c3)cn2)CCCC1` [Example 163, 6-(3-(hydroxymethyl)cinnolin-7-yl)-5-(1-((1-methylcyclopentyl)methyl)-1H-pyrazol-4-yl)picolinonitrile], the figure is 46 nM; as for `CC1(Cn2cc(-c3ccc(C#N)nc3-c3ccc4cc(CF)nnc4c3)cn2)CCCC1` [Example 164, 6-(3-(fluoromethyl)cinnolin-7-yl)-5-(1-((1-methylcyclopentyl)methyl)-1H-pyrazol-4-yl)picolinonitrile], 85 nM.
For the molecule `Clc1ccc(-c2cnn(CC3CCCC3)c2)c(-c2ccc3cccnc3c2)n1` [Example 165, 7-(6-chloro-3-(1-(cyclopentylmethyl)-1H-pyrazol-4-yl)pyridin-2-yl)quinoline], the EC50 is 7 nM.
Consider `FC(F)Oc1ccc(-c2cnn(CC3CCCC3)c2)c(-c2ccc3cccnc3c2)n1` [Example 166, 7-(3-(1-(cyclopentylmethyl)-1H-pyrazol-4-yl)-6-(difluoromethoxy)pyridin-2-yl)quinoline], for which the EC50 was 26 nM.
As for `c1cnc2cc(-c3nc(-n4cccn4)ccc3-c3cnn(CC4CCCC4)c3)ccc2c1` [Example 167, 7-(3-(1-(cyclopentylmethyl)-1H-pyrazol-4-yl)-6-(1H-pyrazol-1-yl)pyridin-2-yl)quinoline], the figure is 98 nM.
As for `C#Cc1ccc(-c2cnn(CC3CCCC3)c2)c(-c2ccc3cccnc3c2)n1` [Example 168, 7-(3-(1-(cyclopentylmethyl)-1H-pyrazol-4-yl)-6-ethynylpyridin-2-yl)quinoline], the figure is 24 nM; as for `CC1(Cn2cc(-c3cc(F)c(C#N)nc3-c3ccn4cc(CF)nc4c3)cn2)CCCC1` [compound 136, 3-fluoro-6-(2-(fluoro-methyl)imidazo[1,2-a]pyridin-7-yl)-5-(1-((1-methylcyclopentyl)meth-yl)-1H-pyrazol-4-yl)picolinonitrile], 19 nM.
The result for `Cn1cnc2cc(-c3nc(F)c(F)cc3-c3cnn(CC4(C)CCCC4)c3)cnc21` [compound 138, 6-(5,6-difluoro-3-(1-((1-methylcyclopentyl)methyl)-1H-pyrazol-4-yl)pyridin-2-yl)-3-methyl-3H-imidazo[4,5-b]pyridine] reads 70 nM.
As to `COCc1cn2ccc(-c3nc(C#N)ccc3-c3cnn(CC4(C)CCCC4)c3)cc2n1` [compound 156, 6-(2-(methoxymeth-yl)imidazo[1,2-a]pyridin-7-yl)-5-(1-((1-methylcyclopentyl)meth-yl)-1H-pyrazol-4-yl)picolinonitrile], the EC50 turned out to be 29 nM.

The values are drawn from patent US11149036B2, “3-(1H-pyrazol-4-yl)pyridine allosteric modulators of the M4 muscarinic acetylcholine receptor” (Merck Sharp & Dohme Corp., priority 2017, dated 2021).
